Assay results: US12589143B2, “Human anti-PD-L1 peptide vaccines and methods of their use” (priority 2019, dated 2026)
Where no end group is shown, it is not given here.

System: CT26/HER-2 carcinoma cell line
Experiment: CT26/HER-2 tumor challenge in immunized Balb/c mice
Assay type: in vivo
Conditions: for tumor growth inhibition: CT26/HER-2, day 16
Excerpt: (PMID: 29337305). […] Balb/c mice 6-8 weeks old, were immunized with MVF-peptide immunogens emulsified in ISA 720 with nor-MDP three times and three weeks apart. Mice were immunized with MVF-PD-L1 vaccine constructs [PD-L1(36-53), PD-L1(50-67), PD-L1(95-112), PD-L1(130-147)] prior to tumor challenge. Blood was collected weekly and sera tested for antibody titers by ELISA. Two weeks after the third immunization (3Y), the mice were engrafted with CT26 WT tumor cells 10^5 per mouse Control mice were treated twice weekly with PBS as negative control and twice weekly with anti-mPD-L1 mAb (10F.9G2) as positive control starting 2 days after tumor challenge. Tumor growths were observed twice weekly and measured by calipers.
Vaccines were dissolved in water and emulsified in Montanide ISA 720 (1:1) and 50 μg nor-MDP (N-acetylglucosamine-3yl-acetyl-1-alanyl-d-isoglutamine). Female Balb/c mice (Charles River Laboratories) at the age of 5 to 6 week were immunized three times at 3-week intervals with 100 μg of each peptide vaccine, and 2 weeks after the third immunization, the mice were challenged s.c. with CT-26-HER2 neu tumor cells (100,000 per mouse).
Mice treated twice a week with anti-mouse PD-L1 MAb 10F.9G2 (Bio X Cell, West Lebanon, NH) 200 ug/dose was used as a positive control or purified mouse IgG from mouse sera (Sigma-Aldrich, St. Louis, Mo) as a negative control. Tumor growth was monitored for up to 21 days after challenge. During immunization, blood was drawn biweekly and used in ELISA to monitor Ab titers. The mice were euthanized at the end of treatment and tumors extracted and weighed samples of the tumors were saved for further study and for histological examination.
Two weeks after the third immunization (3Y), the mice were inoculated subcutaneously (s.c) with CT26 carcinoma cells (1×10^5 cells per mouse) and tumor formation was monitored on a daily basis afterwards. Mice treated with PBS served as negative control, and twice weekly treated mice with 200 μg/dose injections of anti-mouse PD-L1 monoclonal antibody (mAb clone 10F.9G2) served as positive control. Tumor growth was monitored daily and measured by caliper. […] PD-L1 B-cell epitope vaccines treatment had similar and significant reduction in tumor growth at day 16 post challenge as compared to negative control treatment with PBS (FIG. 19). […] Tumor sizes at various times are also shown in FIG. 20 and one-way analysis of variance (one-way ANOVA) followed by the Tukey's multiple comparisons test were used to compare data in multiple groups or data between groups.
We also analyzed the different isotypes of antibodies being generated by vaccination.
6-8 weeks old BALB/c mice (Charles River, Wilmington, MA) were used as standard animal models. Mouse CT26 colon carcinoma cell line was purchased from American Type Culture Collection Cells and were regularly cultured in RPMI1640 medium containing 10% FBS. CT26/HER2 cells were kindly provided by M. Penichet. Vaccines were dissolved in sterile water and emulsified in Montanide ISA 720 (1:1). Female Balb/c mice (Charles River Laboratories) at the age of 6-8 weeks were immunized three times at 3-week intervals with 100 μg of each peptide vaccine, and 2 weeks after the third immunization, the mice were challenged with CT26 and/or CT26/HER-2 tumor cells, which were implanted subcutaneously (s.c) on the right flank (1×10^5 per mouse). 200 μg of rat α-mouse PD-L1 mAb 10F.9G2 (Bio X Cell, West Lebanon, NH) were administered intraperitoneally (i.p.), twice weekly following tumor inoculation in the control group. Mice were monitored and scored for the formation of palpable tumors on a daily basis and sacrificed if tumors became necrotic or exceeded the predetermined size of 2,000 mm^3. Tumor volumes were measured in cubic millimeters with calipers and calculated with the following formula: A×B^2×0.5, where A is the largest diameter, and B is the widest point perpendicular to length. […]

Sequence	tumor growth inhibition	levels of lesions (CT26/HER-2)	percentage of tumor growth inhibition compared to negative control (CT26/HER-2)	tumor inhibition versus PBS (CT26/HER-2, Balb/c)	survival rate (CT26/HER-2, Kaplan-Meier method)	50% mice survival time / survival rate (CT26 HER2, compared to the other PD-L1 epitopes)
KLLSLIKGVIVHRLEGVEGPSLFVHGEEDLKVQHSSYRQR (KLLSLIKGVIVHRLEGVEGPSLFVHGEEDLKVQHSSYRQR-NH2) [PD-L1(50)]	strongest tumor growth inhibition					
KLLSLIKGVIVHRLEGVEGPSLLIVYWEMEDKNIIQFVHG (KLLSLIKGVIVHRLEGVEGPSLLIVYWEMEDKNIIQFVHG-NH2) [PD-L1(36)]	strongest tumor growth inhibition					
KLLSLIKGVIVHRLEGVEGPSLVTSEHELTCQAEGYPKAE (KLLSLIKGVIVHRLEGVEGPSLVTSEHELTCQAEGYPKAE-NH2) [PD-L1(130)]	strongest tumor growth inhibition	lowest levels of lesions	Significant higher percentage of tumor growth inhibition	superior tumor growth inhibition	highest survival rate	better survival rate
KLLSLIKGVIVHRLEGVEGPSLYRCMISYGGADYKRITVK (KLLSLIKGVIVHRLEGVEGPSLYRCMISYGGADYKRITVK-NH2) [PD-L1(95)]	strongest tumor growth inhibition					
